What was measured:
K2P2.1(TREK-1)Δ322 = target: T1, K2P2.1(TREK-1)Δ322 (Mus musculus, UniProt P97438); assay: TEVC of C-terminal truncation at residue 322; assay type: cell-based; conditions: Xenopus oocytes, saturation not reached, fit with upper boundary of 15 (I/I0)
T1 construct: truncations at residue 322, K2P2.1(TREK-1)Δ322, equivalent to a previously described mutant called Δ89; expressed in transfected cells; host or cells: Xenopus laevis oocytes, mRNA injected
From the text: Constructs for murine K2P channels, including K2P2.1(TREK-1) (Gene ID 16526), K2P10.1(TREK-2) (Gene ID 72258), K2P4.1(TRAAK) (Gene ID 16528), K2P5.1(TASK-2) (Gene ID 16529), K2P3.1(TASK-1) (Gene ID 16527), K2P9.1(TASK-3) (Gene ID 223604), and K2P18.1(TRESK) (Gene ID 332396) in pGEMHE/pMO, were used for Xenopus oocyte experiments as previously described.[10],[26] Murine K2P2.1(TREK-1) (Gene ID 16526) was expressed in HEK-293 cells using a pIRES-EGFP construct as previously described.[26] Murine K2P13.1(THIK-1) (Gene ID 217826) and K2P1.1(TWIK-1) (Gene ID 16525) were cloned into pGEMHE/pMO for use in Xenopus oocytes. […]
Xenopus laevis oocytes were harvested in accordance with UCSF IACUC protocol AN129690 and digested in calcium-free ND-96 (96 mM NaCl, 2 mM KCl, 3.8 mM MgCl2) immediately following harvest, as previously described.[6],[10] […] Defolliculated stage V–VI oocytes were injected with 0.2–6.0 ng of mRNA in 50 nL, and currents were recorded 24–48 h after injection. mRNA was synthesized from plasmid DNA using mMessage mMachine Kit (T7 promoter, Ambion, Life Technologies) and purified using RNEasy Kit (Qiagen). […] Once stabilized basal currents were recorded, compounds were perfused at various concentrations in standard ND96 and currents were allowed to increase to stabilization before recording final current. […]

K2P2.1(TREK-1) = target: T2, K2P2.1(TREK-1) (Mus musculus, UniProt P97438); assay: Inside-out patch clamp of K2P2.1(TREK-1) in HEK293 cells; assay type: cell-based; set-up: expressed in transfected cells; conditions: HEK293 inside-out patches, 150 mM K+[out]/150 mM Rb+[in], 1 μM
T2 sequence (P97438 1-411 isoform P97438-2): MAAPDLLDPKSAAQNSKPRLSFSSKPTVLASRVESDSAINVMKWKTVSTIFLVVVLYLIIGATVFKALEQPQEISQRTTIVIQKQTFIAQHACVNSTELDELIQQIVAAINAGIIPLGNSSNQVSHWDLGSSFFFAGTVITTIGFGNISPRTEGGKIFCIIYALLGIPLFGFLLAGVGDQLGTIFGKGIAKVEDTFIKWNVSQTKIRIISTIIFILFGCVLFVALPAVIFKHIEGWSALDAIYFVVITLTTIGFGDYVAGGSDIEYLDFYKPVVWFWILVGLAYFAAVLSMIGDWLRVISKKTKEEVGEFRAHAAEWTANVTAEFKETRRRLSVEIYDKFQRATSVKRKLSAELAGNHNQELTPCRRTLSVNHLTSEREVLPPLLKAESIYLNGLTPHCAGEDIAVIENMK
From the text: Diverse types of physical and chemical stimuli activate K2P2.1(TREK-1) by stabilizing the C-type gate and switching the channel into a “leak” mode that is characterized by a loss of outward rectification of the potassium current.[6],[8] Accordingly, we used inside-out patch clamp experiments of K2P2.1(TREK-1) expressed in HEK293 cells to test whether BL-1249 acts on the C-type gate. […] Together with previous single point concentration studies showing the insensitivity of K2P2.1(TREK-1) W275S in mammalian cells,[40] our data provide definitive evidence that BL-1249 activates K2P2.1(TREK-1) by stimulating the C-type gate. Thus, this compound fits the mechanistic paradigm shared by varied types of activators including mechanical stretch, pH, lipids, and small molecules.[6],[8]
Mouse K2P2.1 was expressed from a previously described pIRES2-EGFP vector in HEK293T cells (ATCC CRL-1573). Cells at 70% confluence were transfected (in 35 mm diameter wells) using LipofectAMINE 2000 (Invitrogen) for 6 h and plated onto coverslips coated with Matrigel (BD Biosciences).
Voltage-dependent activation of K2P2.1 was recorded on excised patches in inside-out configuration (50 kHz sampling) in the absence and presence of 1 μM BL-1249. Pipette solution contained the following: 150 mM KCl, 3.6 mM CaCl2, 10 mM HEPES (pH 7.4 with KOH). […] Data were analyzed using Clampfit 9 and Origin 7.

EC50 (K2P2.1(TREK-1)Δ322): 26 ± 8 µM
effect on outward rectification (C-type gate) (K2P2.1(TREK-1)): clear loss of rectification
Structure (SMILES): c1ccc(-c2nnn[nH]2)c(Nc2cccc3c2CCCC3)c1 [BL-1249, (5,6,7,8-tetrahydro-naphthalen-1-yl)-[2-(1H-tetrazol-5-yl)-phenyl]-amine]
